Measured values from US9023831B2, “Methods and compositions of inhibiting complement and cellular activation with Dextran Sulfate” (Novelmed Therapeutics, Inc., priority 2007, dated 2015).
Like-named read-outs stand apart in the source and are kept apart here.

How the values were obtained:
[1] = tested on: Alternative Pathway Dependent C3b formation in Normal Human Serum; experiment: Alternative pathway-dependent C3b assay on LPS coated plates; assay type: biochemical; details: for inhibition of C3b formation: increasing concentrations
Text: As a result, C3b is generated and is deposited on to LPS. […] LPS bound C3b was detected with a rabbit anti-human C3c antibody (Dako Corp). Rabbit antibody bolund to C3b was detected with peroxidase-conjugated goat anti-rabbit polyclonal antibody. Peroxidase was detected with TMB substrate using common methods.
It was of interest to us to determine whether the Dextran Sulfate might appreciably affect the C3b generation, an important component of the amplification loop of the complement cascade. To analyze the effects of the Dextran Sulfate on C3b formation via the alternative pathway, an assay was utilized in which bacterial LPS was used as a substrate to initiate the alternative complement pathway cascade. […] Microtiter wells were coated with LPS (2 μg/50 μl per well) in VBS overnight at 4° C. Uncoated wells served as background controls. After aspirating the LPS solution, wells were treated with blocking solution and incubated with various concentrations of normal human serum. Following a 2 hour incubation at 37° C., deposited C3b was detected with rabbit anti-human C3c polyclonal antibody (Accurate Biochemicals) using standard ELISA methodologies essentially as described in the Examples above. […] The amount of inhibition of soluble C3b deposition was determined using the antibody detection system described in the Examples above.

[2] = tested on: Thrombin Generation in Citrated Human plasma; experiment: Thrombin generation in citrated human plasma (innovin, S2238); assay type: biochemical
Description: FIG. 7 illustrates NM33014 Inhibits Thrombin Generation in Citrated Human plasma: Citrated Human Plasma was mixed with various concentrations of Dextran Sulfate in the presence of constant concentration of S2238 (Diapharma). […] Data was recorded using Soft Max-Pro on Spectramax 190 kinetic spectramax. Data presented is from a representative experiment that was repeated three times.
Citrated human plasma (100 μl) was mixed with various concentrations of Dextran Sulfate in the presence of constant concentration of S2238 (100 μl of 2 μg/ml).

[3] = tested on: platelets (CD62P staining); experiment: Platelet activation (CD62P flow cytometry) after tubing loop; assay type: cell-based, human
Description: It was expected that platelet activation would also be inhibited. […] The inhibition of platelet activation was measured using flow cytometry following CD62P staining of activated platelets.
It was expected that platelet activation will also be inhibited. […] The inhibition of platelet activation was measured using flow cytometry following CD62P staining of activated platelets.
While platelets bear C3a receptors, it is not clear how platelets were being activated. In an effort to downregulate platelet activation, we performed an experiment in which Dextran Sulfate was utilized in combination with aspirin. […] These surprising results present Dextran Sulfate as a lead complement inhibitory drug that down regulates both complement and cellular activation in heparinized whole human blood. Shown in FIGS. 10d and 10e are results from this study.
For CD62P labeling of platelets, 100 μl of diluted blood collected from the circuits were immediately incubated with 20 μl of PE-anti-CD62P antibody (Becton Dickinson) for 20 minutes at room temperature in a polypropylene tube, Then the mixture was treated with FACS Lysing Solution as described above. The microcentrifuge tubes were centrifuged at 12000. g for 5 minutes. The platelets were washed in PBS/BSA 01%, fixed in 1% paraformaldehyde and then analyzed as described above. For double labeling to concomitantly identify the platelet population, 5 μl of FITC-anti-CD61 antibody were added for incubation together with PE-anti-CD62P antibody.
For flow cytometry measurement, the PMN (containing mainly neutrophils) and platelet populations were identified by live gating based on forward- versus side-scatter parameters and specific staining with FITC-anti-CD15 antibody and FITC-anti-CD61 antibody, respectively. The background staining was gated using isotype-matched labeled antibodies. The intensity of expression of CD11b and CD62P was represented by mean fluorescence intensity (MFI).

properdin = properdin (Homo sapiens, UniProt P27918); details: Dextran Sulfate added in solution along with properdin
Description: Methods: Polystyrene microtiter plates were coated with Dextran Sulfate overnight. Wells without Dextran Sulfate coating served as background controls. After removal of the Dextran Sulfate solution, the plates were washed and blocked with 1% BSA in PBS. Properdin solution with and without Dextran Sulfate was added to the appropriate wells. After this incubation, properdin solution was aspirated from the plate and the plate was washed. The wells were then incubated with anti-properdin monoclonal antibody at a 1:2000 dilution in blocking solution to allow detection of Dextran Sulfate-bound properdin. The wells were rinsed and further incubated with peroxidase-conjugated goat anti-mouse IgG followed by another wash step. Dextran Sulfate-bound properdin was detected by the addition of TMB substrate. The reaction of TMB was quenched by the addition of O-phosphoric acid and the plate read at 450 nm.

[4] = tested on: Complement Activity in Whole Blood Following Tubing Loop Model; experiment: rRBC hemolysis with plasma after tubing loop model; details: for inhibition of rRBC hemolysis: plasma 10% in AP buffer
Description: Lightscattering was measured as a function of time. […] X-axis is time of hemolysis in seconds and Y-axis is scattering at 700 nm Methods: Whole heparinized blood was diluted with plasmalyte to 50% in the presence or absence of NM3014. Samples were centrifuged, and plasma was subjected to hemolysis assay. Plasma final concentration as 10% in GVB (GVB containing 10 mM MgCl2, 5 mM EGTA). rRBC was added and hemolysis of all samples were recorded.
Plasma aliquots for the alternative pathway hemolytic assays: Plasma samples were subjected to alternative pathway dependent hemolytic assay using AP buffer (GVB containing 10 mM magnesium chloride, 5 mM EGTA). Plasma concentrations were adjusted to 10% final in AP buffer. rRBC were incubated at 37° and the extent of hemolysis was obtained using kinetic run (SoftMax Pro, Molecular Devices, CA).

[5] = tested on: immune cells infiltrating the synovial fluid; experiment: Cellular infiltration into arthritic knee joints of AIA rabbits; details: 48-h after last treatment, vs vehicle-treated AIA rabbits
Description: Methods. The numbers of immune cells infiltrating the synovial fluid of the right and left joints was determined by cell counting using a hemocytometer.
Synovial samples were also collected from the right and left knees of the AIA rabbits in this experiment and assessed for immunocyte infiltration 48-h after the last Dextran Sulfate or vehicle treatment. […] Data are presented as mean number of cells±SEM for each rabbit (N of 5 per treatment group, Stats: repeated measure ANOVA with Bonferoni Post-hoc test, *p<0.05).

[6] = tested on: Complement Activity in Antigen-Induced Arthritic Rabbit; experiment: Complement activity in antigen-induced arthritic rabbits (C3c assay); details: 60 mg/Kg i.v.; for inhibition of complement activation in vivo: ten minutes after treatment, vs vehicle-treated AIA rabbits
Description: METHODS: After the intra-articular ovalbumin injection to induce arthritis, disease pathology developed for seven days prior to the collection of a blood sample to determine complement activation levels and the administration of Dextran Sulfate treatment. Blood samples were drawn prior to all treatments with Dextran Sulfate to establish baseline values and pre-treatment complement activation levels. Dextran Sulfate (60 mg/Kg) was then injected via the marginal vein every day over a 3 day period. Ten minutes after treatment with Dextran Sulfate a second 1-ml blood sample from the ear to assess complement activation shortly after the treatment. Complement activation was assessed using the C3c assay described in methods.

properdin, sequence (P27918 28-469): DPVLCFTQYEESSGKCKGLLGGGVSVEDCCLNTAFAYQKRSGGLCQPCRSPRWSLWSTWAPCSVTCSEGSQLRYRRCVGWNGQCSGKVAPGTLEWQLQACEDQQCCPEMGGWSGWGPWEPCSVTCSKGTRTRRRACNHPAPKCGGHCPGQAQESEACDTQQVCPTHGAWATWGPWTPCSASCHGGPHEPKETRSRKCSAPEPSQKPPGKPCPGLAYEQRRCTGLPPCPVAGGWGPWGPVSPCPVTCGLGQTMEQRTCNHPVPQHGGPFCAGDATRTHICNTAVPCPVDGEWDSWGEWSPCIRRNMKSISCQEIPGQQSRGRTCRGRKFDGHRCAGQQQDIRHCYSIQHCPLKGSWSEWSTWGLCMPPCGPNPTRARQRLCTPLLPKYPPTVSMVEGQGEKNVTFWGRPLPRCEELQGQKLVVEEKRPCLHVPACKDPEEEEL

**Q.** What does the source list for Dextran Sulfate [NM3014]?
**A.** IC50 of inhibition of C3b formation ([1]; 10% normal human serum): 7 to 10 µg/mL; inhibition of C3b formation [1]: inhibited C3b formation in a dose dependent manner; inhibition of C3b formation ([1]; listed as Dextran Sulfate): completely prevents C3b generation in a dose dependent manner; effect on coagulation (thrombin generation) ([2]; 10 μg/ml): partial effect; effect on coagulation (thrombin generation) ([2]; 30 μg/ml): inhibit coagulation; effect on coagulation (thrombin generation) ([2]; 60 μg/ml): inhibit coagulation; platelet activation ([3]; 40 μg/ml, above control levels): activates platelet; platelet activation ([3]; 100 μg/ml, above control levels): activates platelet; platelet activation ([3]; treated samples compared to untreated controls, concentration not stated): increased CD62P staining; platelet activation ([3]; treated samples compared to untreated controls, concentration not stated, listed as Dextran Sulfate): activates platelets; inhibition of properdin binding to substrate-bound Dextran Sulfate (properdin): inhibited; inhibition of properdin binding to substrate-bound Dextran Sulfate (properdin; listed as Dextran Sulfate): dose-dependent inhibition; inhibition of rRBC hemolysis ([4]; 100 μg/ml): complete inhibition of hemolysis; inhibition of rRBC hemolysis ([4]; 200 μg/ml): complete inhibition of hemolysis; inhibition of rRBC hemolysis ([4]; 400 μg/ml): complete inhibition of hemolysis; inhibition of rRBC hemolysis ([4]; 800 μg/ml): complete inhibition of hemolysis; inhibition of complement activity in human plasma (hemolysis) ([4]; 100, 400, 800 μg/ml lines of FIG. 10a): inhibits complement activity; inhibition of rRBC hemolysis ([4]; around 40 μg/ml): No inhibition; immunocyte infiltration into arthritic knee joints [5]: reduced; immunocyte infiltration into arthritic knee joints ([5]; listed as Dextran Sulfate): significant decrease; inhibition of AP activity in vivo ([6]; 24 hour later): no inhibition; inhibition of complement activation in vivo [6]: complete inhibition; inhibition of complement activation in vivo ([6]; listed as Dextran Sulfate): completely blocked
